Tests used:
Sta006 = assay: Antibody titre at day 23 by Luminex assay; assay type: in vivo, mouse; conditions: day 23 after first vaccination
Method: (§1) At day 23 after the first vaccination with the S. aureus combination vaccine (i.e. one day prior to the challenge with a lethal dose of S. aureus), the HlaH35L, EsxAB, Sta006 and Sta011 antibody titres for each group of mice described in Example 2 were measured by Luminex assay.

S. aureus strain Newman = assay: Survival of vaccinated or mock-injected mice after challenge with a lethal dose of live S. aureus; assay type: in vivo, CD1 mice
Method: Four groups of 47 to 48 CD1 mice were treated as follows: CD1 mice were immunized twice via intraperitoneal injection two weeks apart (on day 0 and day 14), and each mouse received 200 μl of (mock-)vaccine. Groups 1 (Alum-Nam) and 2 (Alum) were mock-injected with alum (saline plus 2 mg/ml aluminium-hydroxide), groups 3 (Combo-NAM) and 4 (Combo only) were immunised with the S. aureus combination vaccine of Example 1. Groups 1 (Alum-Nam) and 3 (Combo-NAM) received 250 mg/kg NAM orally one day before and one day after challenge with a lethal dose of live S. aureus.
On day 24 (i.e. 10 days after the second vaccination), the immunised animals of groups 1-4 were challenged by intraperitoneal injection of a bacterial suspension of S. aureus strain Newman (approximately 2 to 5×10^8 CFU). Cultures of S. aureus were centrifuged, washed twice and diluted in PBS before challenge. Survival of the mice was monitored over a 15-day period post infection.
Survival rates were analysed by Mann-Whitney U-test. Mice were daily monitored and euthanized according to humane endpoints, in agreement with Novartis Animal Welfare Policies.

HlaH35L = assay: Antibody titre at day 23 by Luminex assay; assay type: in vivo, mice; conditions: day 23 after first vaccination
Method: as §1

EsxAB = assay: Antibody titre at day 23 by Luminex assay; assay type: in vivo, mice; conditions: day 23 after first vaccination
Method: as §1

Sta011 = assay: Antibody titre at day 23 by Luminex assay; assay type: in vivo, mice; conditions: day 23 after first vaccination
Method: as §1

S. aureus = conditions: NAM daily beginning 24 hours prior to or 12 hours after infection with S. aureus; cited from earlier work
[1] = cited from earlier work
[2] = cited from earlier work; remark: listed apart in the source

NC(=O)c1cccnc1 [NAM, nicotinamide]
Sta006 antibody titre in serum, group 3 (vaccinated, NAM treatment) vs group 4 (vaccinated, no NAM treatment) (Sta006): No significant difference
mice that survived until 15 days post infection (S. aureus strain Newman; CD1 mice, (mock-)vaccine i.p. day 0 and 14, i.p. challenge day 24, NAM 250 mg/kg orally one day before and one day after challenge): 9%
mortality in comparison to mice which had received only the vaccine (S. aureus strain Newman; mice immunized with S. aureus combination vaccine, NAM 250 mg/kg orally): significantly decreased
protecting mice against a lethal infection with S. aureus (S. aureus strain Newman; mice treated with alum alone, NAM 250 mg/kg orally): not effective
HlaH35L antibody titre in serum, group 3 (vaccinated, NAM treatment) vs group 4 (vaccinated, no NAM treatment) (HlaH35L): No significant difference
EsxAB antibody titre in serum, group 3 (vaccinated, NAM treatment) vs group 4 (vaccinated, no NAM treatment) (EsxAB): No significant difference
Sta011 antibody titre in serum, group 3 (vaccinated, NAM treatment) vs group 4 (vaccinated, no NAM treatment) (Sta011): No significant difference
immune killing of the bacteria (S. aureus): dramatically enhances
dose reported to be reversible hepatotoxic ([1]; animals and humans): > 3 g/day
side effects associated with treatment of human subjects ([1]; human subjects): no significant side effects
oncogenic / teratogenic in humans [1]: neither oncogenic nor teratogenic

Nc1cccc2c1CN(C1CCC(=O)NC1=O)C2=O (centres unmarked) [lenalidomide]
oncogenic / teratogenic in humans [1]: potentially teratogenic
bone marrow toxicity as adverse effect in patients [1]: frequently observed

Nc1cccc2c1C(=O)N(C1CCC(=O)NC1=O)C2=O (centres unmarked) [pomalidomide]
oncogenic / teratogenic in humans [1]: potentially teratogenic
bone marrow toxicity as adverse effect in patients [1]: frequently observed

N[C@H](CCC(=O)N[C@@H](Cc1c[nH]c2ccccc12)C(=O)O)C(=O)O [γ-D-glutamyl-L-tryptophan]
adverse effects on administration to human subjects ([2]; human, in vivo): without adverse effects
clinical effect on oral mucositis ([2]; humans): no clinical effect

Reference: patent US20150258190A1, “NICOTINAMIDE AS ADJUVANT” (NOVARTIS AG, priority 2012, published 2015)
